Read-outs that look alike come from different tables or passages of the source.
Columns and labels:
[1] = system: Tetranychus urticae (Two-Spotted Spider Mite); conditions: foliar, 192 h, read-out: activity (egg, larval and adult mortality)
[2] = system: Myzus persicae (Green Peach Aphid); assay: Example B1: Myzus persicae, mixed population, feeding/residual contact activity, preventive (sprayed sunflower leaf discs); conditions: foliar, 144 h, read-out: activity (mortality)
[3] = system: Myzus persicae (Green Peach Aphid); conditions: 144 h, read-out: activity (mortality)
[4] = system: Thrips tabaci (Onion Thrips); conditions: foliar, 144 h, read-out: activity (mortality)
[5] = system: Aphis craccivora (Cowpea Aphid); assay: Example B8: Aphis craccivora, mixed population, systemic/feeding (roots of pea seedlings in test solution); type: in vivo; conditions: 144 h, read-out: activity (mortality)
Source text: (§1) Activity Against Aphis craccivora (Cowpea Aphid)
(Mixed Population, Systemic/Feeding)
6 days later, samples are checked for mortality.

[6] = system: Myzus persicae (Green Peach Aphid); assay: Example B11: Myzus persicae, mixed population, feeding/residual contact activity (sprayed pepper plants); type: in vivo; conditions: 144 h, spray chamber, 6 days after treatment, read-out: activity against Myzus persicae (mortality)
[7] = system: Nilaparvata lugens (Brown Rice Planthopper); assay: Example B6: Nilaparvata lugens, larvicide, feeding/contact (rice seedlings); conditions: in Oryza sativa, read-out: activity (mortality, growth regulation, effects on F1 generation)
[8] = system: Myzus persicae (Green Peach Aphid); assay: Example B10: drench activity against Myzus persicae (pea seedlings in field soil); conditions: 168 h, read-out: drench activity (mortality)
[9] = system: Aphis craccivora (Cowpea Aphid); assay: whole plant or invertebrate; type: in vivo; conditions: 144 h, read-out: activity (mortality)
Source text: as §1
(Mixed Population, Contact/Feeding)
6 days after treatment, samples are checked for mortality.

[10] = system: Aphis craccivora (Cowpea Aphid); assay: whole plant or invertebrate; conditions: in Phaseolus vulgaris, 120 h, read-out: translaminar activity (mortality)

SMILES | mortality at 400 ppm [1] [%] | mortality at 400 ppm [2] [%] | mortality at 400 ppm [3] [%] | also measured
CCOC(=O)OC1=C(c2c(F)ccc(Br)c2Cl)C(=O)OC12CCN(OC)CC2 [P1.29] | > 80 | – | – | –
CON1CCC2(CC1)OC(=O)C(c1c(C)cc(Br)cc1C)=C2O [P2.5] | – | > 80 | > 80 | –
CCOC(=O)OC1=C(c2c(C)cc(Br)cc2C)C(=O)OC12CCN(OC)CC2 [P1.8] | – | – | > 80 | –
CCOC(=O)OC1=C(c2c(C)cc(C)cc2C)C(=O)OC12CCN(OCC)CC2 [P1.17] | > 80 | > 80 | > 80 | mortality at 400 ppm [4]: > 80%
CCOC(=O)OC1=C(c2c(C)ccc(Cl)c2C)C(=O)OC12CCN(OC)CC2 [P1.15] | > 80 | – | – | –
C=Cc1cc(C)c(C2=C(O)C3(CCN(OC)CC3)OC2=O)c(C)c1 [P2.7] | – | > 80 | > 80 | –
CCOC(=O)OC1=C(c2c(C)cc(Cl)cc2C)C(=O)OC12CCN(OC)CC2 [P1.11] | > 80 | > 80 | > 80 | mortality at 25 ppm ([5]; 25 ppm, roots in test solution, 6 days): > 80%; mortality at 200 ppm [6]: ≥ 80%; mortality at 400 ppm [7]: > 80%; mortality at 25 ppm [8]: > 80%
CCC(C)(C)C(=O)OC1=C(c2c(C)cc(C)cc2C)C(=O)OC12CCN(OC)CC2 [P1.10] | > 80 | > 80 | > 80 | –
CON1CCC2(CC1)OC(=O)C(c1c(C)cc(Br)cc1Cl)=C2O [P2.47] | – | – | – | mortality at 200 ppm [6]: ≥ 80%
CON1CCC2(CC1)OC(=O)C(c1cc(C)c(Cl)cc1C)=C2O [P2.48] | – | – | – | mortality at 200 ppm [6]: ≥ 80%
CCOC(=O)OC1=C(c2cc(C)c(C)cc2C)C(=O)OC12CCN(OC)CC2 [P1.3] | – | > 80 | > 80 | mortality at 200 ppm [6]: ≥ 80%
CCOC(=O)OC1=C(c2c(C)cc(C)cc2C)C(=O)SC12CCN(OC)CC2 [P1.7, Carbonic acid ethyl ester 8-methoxy-2-oxo-3-(2,4,6-trimethylphenyl)-1-thia-8-aza-spiro[4.5]dec-3-en-4-yl ester] | – | > 80 | – | –
CCOC(=O)OC1=C(c2c(C)cc(C)c(Cl)c2C)C(=O)OC12CCN(OC)CC2 [P1.18] | – | – | > 80 | –
CCOC(=O)OC1=C(c2c(C)cc(C)c(Br)c2C)C(=O)OC12CCN(OC)CC2 [P1.39] | – | – | – | melting point: 52 to 54 °C
CCOC(=O)OC1=C(c2cc(C)c(Cl)cc2C)C(=O)OC12CCN(OC)CC2 [P1.33] | – | – | > 80 | –
CON1CCC2(CC1)OC(=O)C(c1ccc(C)cc1C)=C2O [P2.8] | – | > 80 | > 80 | mortality at 200 ppm [6]: ≥ 80%
CON1CCC2(CC1)OC(=O)C(c1c(C)cc(C)c(Cl)c1C)=C2O [P2.13] | > 80 | – | > 80 | –
COc1ccccc1C1=C(O)C2(CCN(OC)CC2)OC1=O [P2.34] | – | > 80 | – | –
CON1CCC2(CC1)OC(=O)C(c1c(C)cc(C)cc1C)=C2OC(=O)C(C)(C)C [P1.6] | – | > 80 | > 80 | mortality at 200 ppm [6]: ≥ 80%
CON1CCC2(CC1)OC(=O)C(c1cc(C)c(C)cc1C)=C2OC(=O)C(C)(C)C [P1.4] | – | > 80 | > 80 | mortality at 200 ppm [6]: ≥ 80%
CCOC(=O)OC1=C(c2cc(C)ccc2C)C(=O)OC12CCN(OC)CC2 [P1.1, Carbonic acid 3-(2,5-dimethyl-phenyl)-8-methoxy-2-oxo-1-oxa-8-aza-spiro[4.5]dec-3-en-4-yl ester ethyl ester] | – | – | > 80 | mortality at 200 ppm [6]: ≥ 80%
CCOC(=O)OC1=C(c2c(C)cc(C)cc2C2CC2)C(=O)OC12CCN(OC)CC2 [P1.34] | > 80 | – | > 80 | –
C=Cc1cc(C)c(C2=C(OC(=O)OCC)C3(CCN(OC)CC3)OC2=O)c(C)c1 [P1.12] | – | – | > 80 | –
CON1CCC2(CC1)OC(=O)C(c1c(C)cc(C)cc1C1CC1)=C2O [P2.49] | > 80 | > 80 | > 80 | –

SMILES | mortality at 400 ppm [1] [%] | mortality at 400 ppm [2] [%] | mortality at 400 ppm [3] [%] | also measured
CON1CCC2(CC1)OC(=O)C(c1c(Br)cc(C)cc1Br)=C2O [P2.40] | > 80 | – | – | –
CON1CCC2(CC1)OC(=O)C(c1ccc(F)cc1)=C2O [P2.20] | > 80 | – | – | –
CCOC(=O)OC1=C(c2c(Cl)cc(Br)cc2Cl)C(=O)OC12CCN(OC)CC2 [P1.30] | – | – | – | melting point: 122 to 125 °C
CCON1CCC2(CC1)OC(=O)C(c1c(C)cc(C)cc1C)=C2O [P2.12] | > 80 | > 80 | > 80 | mortality at 400 ppm [4]: > 80%
CON1CCC2(CC1)OC(=O)C(c1c(C)cc(Cl)cc1C)=C2O [P2.6] | > 80 | > 80 | – | –
CCOC(=O)OC1=C(c2ccc(C)cc2C)C(=O)OC12CCN(OC)CC2 [P1.13] | – | > 80 | > 80 | mortality at 200 ppm [6]: ≥ 80%; mortality at 400 ppm [4]: > 80%
COc1c(Cl)cccc1C1=C(O)C2(CCN(OC)CC2)OC1=O [P2.37] | – | > 80 | – | –
CCOC(=O)OC1=C(c2c(C)cc(C)cc2C)C(=O)OC12CCN(OC)CC2 [P1.5, Carbonic acid ethyl ester 8-methoxy-2-oxo-3-(2,4,6-trimethylphenyl)-1-oxa-8-aza-spiro[4.5]dec-3-en-4-yl ester] | – | > 80 | > 80 | –
CCOC(=O)OC1=C(c2c(C)cc(C)cc2C)C(=O)OC12CCN(OCCOC)CC2 [P1.19] | > 80 | – | > 80 | –
CON1CCC2(CC1)SC(=O)C(c1c(C)cc(C)cc1C)=C2O [P2.4, 4-hydroxy-8-methoxy-3-(2,4,6-trimethyl-phenyl)-1-thia-8-aza-spiro[4.5]dec-3-en-2-one] | > 80 | > 80 | – | –
C=Cc1cc(C)cc(C)c1C1=C(O)C2(CCN(OC)CC2)OC1=O [P2.50] | – | > 80 | > 80 | –
CON1CCC2(CC1)OC(=O)C(c1cc(C)ccc1C)=C2OC(=O)C(C)(C)C [P1.2] | – | > 80 | > 80 | –
CON1CCC2(CC1)OC(=O)C(c1cc(C)c(C)cc1C)=C2O [P2.2, 4-Hydroxy-8-methoxy-3-(2,4,5-trimethyl-phenyl)-1-oxa-8-aza-spiro[4.5]dec-3-en-2-one] | – | > 80 | > 80 | mortality at 200 ppm [6]: ≥ 80%; mortality at 400 ppm [4]: > 80%
CON1CCC2(CC1)OC(=O)C(c1c(C)cc(C)cc1C)=C2O [P2.3, 4-hydroxy-8-methoxy-3-(2,4,6-trimethyl-phenyl)-1-oxa-8-aza-spiro[4.5]dec-3-en-2-one] | > 80 | > 80 | > 80 | mortality at 400 ppm [9]: > 80%; mortality at 25 ppm [5]: > 80%; mortality at 400 ppm [10]: > 80%; mortality at 400 ppm [7]: > 80%; mortality at 25 ppm [8]: > 80%
CCOC(=O)OC1=C(c2c(C)cccc2C)C(=O)OC12CCN(OC)CC2 [P1.40] | – | – | – | melting point: 93 to 94 °C
CON1CCC2(CC1)OC(=O)C(c1ccc(Cl)cc1)=C2O [P2.35] | > 80 | – | – | –
CCc1cc(C)cc(C)c1C1=C(O)C2(CCN(OC)CC2)OC1=O [P2.51] | > 80 | > 80 | > 80 | –
CCOC(=O)OC1=C(c2ccc(Cl)cc2Cl)C(=O)OC12CCN(OC)CC2 [P1.14] | – | > 80 | > 80 | –
COCCON1CCC2(CC1)OC(=O)C(c1c(C)cc(C)cc1C)=C2O [P2.14] | > 80 | – | – | mortality at 400 ppm [4]: > 80%
CON1CCC2(CC1)OC(=O)C(c1cc(C)ccc1C)=C2O [P2.1, 3-(2,5-dimethyl-phenyl)-4-hydroxy-8-methoxy-1-oxa-8-aza-spiro[4.5]dec-3-en-2-one] | – | > 80 | > 80 | mortality at 200 ppm [6]: ≥ 80%
CCOC(=O)OC1=C(c2cc(C)ccc2OC)C(=O)OC12CCN(OC)CC2 [P1.16] | – | – | – | melting point: 81 to 83 °C
CON1CCC2(CC1)OC(=O)C(c1ccc(Cl)cc1Cl)=C2O [P2.9] | > 80 | – | – | –
CON1CCC2(CC1)OC(=O)C(c1c(C)cc(C)cc1C)=C2OC(=O)CC(C)(C)C [P1.9] | – | > 80 | > 80 | –
